Activity calls are given as the source filed them. The rule behind the calls is not given here.

From ChEMBL document CHEMBL1157891, “Methylene amine substituted arylindenopyrimidines as potent adenosine A(2A)/A(1) antagonists” (Bioorg Med Chem Lett, 2010) come the findings set out here.

Data set [1] deals with Mus musculus. Nature of the data set: Inhibition of haloperidol-induced catalepsy in mouse at 10 mg/kg, po. It counts as functional, organism-based. More on the design: dose 10 mg/kg.
Data set [2] can be described thus: Mutagenic activity in Salmonella Typhimurium by Ames assay. It is filed as toxicity. To be noted: salmonella enterica subsp. enterica serovar typhimurium. (The Ames test uses bacterial strains that need an amino acid and regain growth without it when mutated back.)
In another data set the target is Adenosine receptor A2a (Homo sapiens, UniProt P29274). Nature of the data set: Antagonist activity at adenosine A2A receptor. It counts as functional.
Another data set deals with T1, Adenosine receptor A1 (Homo sapiens, UniProt P30542).
T1 sequence (P30542 whole entry): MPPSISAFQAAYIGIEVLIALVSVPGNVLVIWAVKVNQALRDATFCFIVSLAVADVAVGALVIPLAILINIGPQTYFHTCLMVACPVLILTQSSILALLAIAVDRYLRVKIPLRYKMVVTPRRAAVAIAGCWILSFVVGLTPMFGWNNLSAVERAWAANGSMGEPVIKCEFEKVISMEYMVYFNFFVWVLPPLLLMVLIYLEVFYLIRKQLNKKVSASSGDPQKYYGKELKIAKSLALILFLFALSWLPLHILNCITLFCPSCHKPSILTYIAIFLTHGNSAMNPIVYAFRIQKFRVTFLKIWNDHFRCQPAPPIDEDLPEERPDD
Nature of the data set: Antagonist activity at adenosine A1 receptor. It is filed as functional.

Data set [3] concerns Mus musculus. Nature of the data set: Inhibition of haloperidol-induced catalepsy in po dosed mouse. It is filed as functional.

Chain of Adenosine receptor A2a (P29274 whole entry): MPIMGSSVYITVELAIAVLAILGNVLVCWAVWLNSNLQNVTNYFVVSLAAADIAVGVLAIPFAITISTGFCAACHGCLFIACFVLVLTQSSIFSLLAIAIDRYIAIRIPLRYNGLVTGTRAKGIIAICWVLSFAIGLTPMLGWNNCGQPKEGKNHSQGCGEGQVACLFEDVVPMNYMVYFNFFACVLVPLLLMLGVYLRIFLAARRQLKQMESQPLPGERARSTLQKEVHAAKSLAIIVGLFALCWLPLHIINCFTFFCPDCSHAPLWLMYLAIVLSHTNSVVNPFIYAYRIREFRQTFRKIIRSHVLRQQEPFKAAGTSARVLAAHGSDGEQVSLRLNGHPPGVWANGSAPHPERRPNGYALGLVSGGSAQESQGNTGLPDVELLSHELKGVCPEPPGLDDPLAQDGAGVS

For `COc1ccccc1-c1nc(N)nc2c1C(=O)c1ccccc1-2`, the inhibition result in the data set with Mus musculus [1] was “inactive”. Moreover, in data set [2], the Activity entry is reported as “Non-toxic”.

Broadly, the Ki is a dissociation constant, usually derived from enzyme kinetics or from competition with a known ligand. A lower Ki goes with higher affinity. One may read the ED50 as the dose that gives a 50% effect, or the effect in half of the subjects. With `CC(=O)N1CCN(Cc2cccc3c2-c2nc(N)nc(-c4ccccc4)c2C3=O)CC1`, the inhibition constant Ki on Adenosine receptor A2a turned out to be 7.9 nM; at Adenosine receptor A1 it was 34.1 nM. Also, it took a dose of 10.7 mg/kg to reach the 50% effect level in the data set with Mus musculus [3] (ED50).

As to `Nc1nc(-c2ccc(F)cc2)c2c(n1)-c1c(CN3CCCC3)cccc1C2=O`, the Ki on Adenosine receptor A2a amounted to 3.6 nM; at Adenosine receptor A1, 85 nM. This molecule also had an ED50 in the data set on Mus musculus [3] of 0.8 mg/kg.

On to `Nc1nc(-c2ccccc2)c2c(n1)-c1c(CN3CCCCC3)cccc1C2=O`, for which the inhibition constant (Ki) on Adenosine receptor A2a is 14.3 nM; at Adenosine receptor A1 it was 40.8 nM. In the data set on Mus musculus [3], it took a dose of 5 mg/kg to reach the 50% effect level (ED50).

Regarding `CCN(CC)Cc1cccc2c1-c1nc(N)nc(-c3ccccc3)c1C2=O`, the results for the inhibitory constant (Ki) at Adenosine receptor A2a and on Adenosine receptor A1 were 18.3 nM and 107 nM, respectively. Besides, the inhibition entry in the data set on Mus musculus [1] was “inactive”.

As for `Nc1nc(-c2nccs2)c2c(n1)-c1ccccc1C2=O`, the Ki on Adenosine receptor A2a stood at 0.5 nM. Also, in the data set on Mus musculus [1], the inhibition entry was “inactive”.

Take `Nc1nc(-c2ccc(F)cc2)c2c(n1)-c1cc(CN3CCCCC3)ccc1C2=O`: the inhibition constant Ki worked out at 9.9 nM on Adenosine receptor A2a and 95.7 nM at Adenosine receptor A1. This molecule gave a median effective dose (ED50) in the data set on Mus musculus [3] of 0.6 mg/kg.

Turning to `Nc1nc(-c2ccccc2)c2c(n1)-c1c(CN3CCCC3)cccc1C2=O`, the inhibition constant Ki at Adenosine receptor A2a turned out to be 2.5 nM; at Adenosine receptor A1, 116 nM. The molecule also came in with an ED50 in the data set on Mus musculus [3] of 3.8 mg/kg.

`Nc1nc(-c2ccc(Cl)o2)c2c(n1)-c1ccccc1C2=O`: the figures for the inhibition constant Ki on Adenosine receptor A2a and on Adenosine receptor A1 were 0.2 nM and 0.5 nM, respectively. Moreover, the inhibition result in the data set with Mus musculus [1] was “inactive”.

In the case of `CN(C)CCN(C)Cc1ccc2c(c1)-c1nc(N)nc(-c3ccccc3)c1C2=O`, the inhibitory constant (Ki) on Adenosine receptor A2a came to 7.8 nM; on Adenosine receptor A1 it was 20 nM.

As for `Nc1nc(-c2ccc(F)cc2)c2c(n1)-c1c(CN3CCOCC3)cccc1C2=O`, the inhibition constant Ki amounted to 3.8 nM at Adenosine receptor A2a and 155 nM on Adenosine receptor A1. The molecule also showed a 50% effective dose (ED50) with Mus musculus [3] of 1.3 mg/kg.

As for `Nc1nc(-c2ccccc2)c2c(n1)-c1ccccc1C2=O`, the Ki on Adenosine receptor A1 was found to be 1.1 nM. Also, the 50% effect level in the data set with Mus musculus [3] (ED50) was put at a dose of 8 mg/kg. Further, the Activity result in data set [2] was “Non-toxic”.

Consider `CN1CCN(Cc2cccc3c2-c2nc(N)nc(-c4ccccc4)c2C3=O)CC1`, for which the figures for the Ki at Adenosine receptor A2a and on Adenosine receptor A1 were 11.3 nM and 94.2 nM, respectively. The 50% effect level with Mus musculus [3] (ED50) was put at a dose of 7.8 mg/kg.

For `COc1cccc(-c2nc(N)nc3c2C(=O)c2ccccc2-3)c1`, the inhibition constant (Ki) at Adenosine receptor A2a worked out at 1.6 nM; at Adenosine receptor A1 it was 2.5 nM. In the data set with Mus musculus [1], the inhibition result is “inactive”. Moreover, the Activity result in data set [2] is listed as “Non-toxic”.

On to `Nc1nc(-c2ccccc2)c2c(n1)-c1c(CN3CCCCCC3)cccc1C2=O`, for which the Ki was found to be 8.6 nM on Adenosine receptor A2a and 95.2 nM on Adenosine receptor A1. Besides, the inhibition result with Mus musculus [1] is “inactive”.

On Adenosine receptor A1, `Nc1nc(-c2ccco2)c2c(n1)-c1ccccc1C2=O` had a Ki of 0.4 nM. In the data set on Mus musculus [3], this molecule registered a 50% effective dose (ED50) of 5 mg/kg. In addition, in data set [2], the Activity result is given as “Toxic”.

Consider `Nc1nc(-c2ccccc2)c2c(n1)-c1c(CN3CCOCC3)cccc1C2=O`, for which the Ki is 3.3 nM on Adenosine receptor A2a and 32.9 nM on Adenosine receptor A1. Moreover, the ED50 in the data set on Mus musculus [3] amounted to 5.6 mg/kg.

With `Nc1nc(-c2ccc(F)cc2)c2c(n1)-c1cc(CN3CCCC3)ccc1C2=O`, the values for the inhibition constant (Ki) on Adenosine receptor A2a and on Adenosine receptor A1 were 12.8 nM and 66.2 nM, respectively. It took a dose of 1.6 mg/kg to reach the 50% effect level in the data set on Mus musculus [3] (ED50).

Regarding `Nc1nc(-c2ccc(Cl)cc2)c2c(n1)-c1ccccc1C2=O`, in the data set on Mus musculus [1], the inhibition entry was “inactive”. Moreover, the Activity result in data set [2] is “Non-toxic”.

Regarding `Nc1nc(-c2ccncc2)c2c(n1)-c1ccccc1C2=O`, the inhibition entry with Mus musculus [1] is “inactive”.

With `CN(C)CCN(C)c1ccc(-c2nc(N)nc3c2C(=O)c2ccccc2-3)o1`, the values for the inhibitory constant (Ki) at Adenosine receptor A2a and at Adenosine receptor A1 were 10.5 nM and 40 nM, respectively. For the same molecule, the ED50 with Mus musculus [3] was determined as 17.1 mg/kg. Moreover, the Activity entry in data set [2] was “Non-toxic”.

Regarding `CC1CCC(C)N1Cc1cccc2c1-c1nc(N)nc(-c3ccccc3)c1C2=O` (stereo unspecified), the Ki on Adenosine receptor A2a worked out at 11.3 nM; at Adenosine receptor A1 it was 140 nM. Moreover, in the data set with Mus musculus [1], the inhibition result is “inactive”.

Turning to `CN1CCN(Cc2ccc3c(c2)-c2nc(N)nc(-c4ccc(F)cc4)c2C3=O)CC1`, the Ki was determined as 29.8 nM on Adenosine receptor A2a and 225 nM at Adenosine receptor A1. The median effective dose (ED50) with Mus musculus [3] turned out to be 3.5 mg/kg.

On to `CN(C)CCN(C)Cc1cccc2c1-c1nc(N)nc(-c3ccccc3)c1C2=O`, for which the Ki on Adenosine receptor A2a was 40.1 nM; at Adenosine receptor A1 it was 119 nM. Moreover, the inhibition entry with Mus musculus [1] is “inactive”.

Consider `N#Cc1cccc(-c2nc(N)nc3c2C(=O)c2cccc(CN4CCOCC4)c2-3)c1`, for which the figures for the Ki on Adenosine receptor A2a and at Adenosine receptor A1 were 5.4 nM and 75 nM, respectively. The same molecule returned a median effective dose (ED50) with Mus musculus [3] of 1.7 mg/kg.
